pIC50: −log10 of the molar value.
biological target: T1, Receptor-interacting serine/threonine-protein kinase 1 (Homo sapiens, UniProt Q13546); assay: Inhibitory Activity Assay
T1 sequence (Q13546 whole entry): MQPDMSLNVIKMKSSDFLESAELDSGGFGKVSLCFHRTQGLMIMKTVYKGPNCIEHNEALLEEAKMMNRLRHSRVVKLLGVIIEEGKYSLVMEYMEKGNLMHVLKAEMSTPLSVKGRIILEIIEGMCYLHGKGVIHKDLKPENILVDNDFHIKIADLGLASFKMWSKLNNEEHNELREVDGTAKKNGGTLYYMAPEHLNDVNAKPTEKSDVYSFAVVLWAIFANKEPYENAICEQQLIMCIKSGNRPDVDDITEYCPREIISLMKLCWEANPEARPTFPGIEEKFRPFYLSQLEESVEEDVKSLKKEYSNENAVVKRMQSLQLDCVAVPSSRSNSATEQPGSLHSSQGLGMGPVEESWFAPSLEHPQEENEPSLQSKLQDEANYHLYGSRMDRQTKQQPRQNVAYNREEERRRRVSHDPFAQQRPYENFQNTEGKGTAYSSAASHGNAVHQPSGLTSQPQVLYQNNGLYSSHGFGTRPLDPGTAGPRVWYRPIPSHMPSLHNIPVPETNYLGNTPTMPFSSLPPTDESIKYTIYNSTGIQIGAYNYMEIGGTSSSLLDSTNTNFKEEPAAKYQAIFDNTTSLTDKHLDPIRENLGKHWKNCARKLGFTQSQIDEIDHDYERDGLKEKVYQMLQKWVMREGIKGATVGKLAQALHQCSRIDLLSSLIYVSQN
Description: The compound of the present invention and the control compound were dissolved in the assay buffer (50 mM Hepes pH 7.5, 50 mM NaCl, 30 mM MgCl2, 1 mM DTT, 0.02% CHAPS, 0.5 mg/mL BSA), and diluted in a ratio of 1:1.5 using a 22-point titration (high concentration 2 μM), and then added to a 384-well plate. […] After completion of the reaction, 5 μL of ADP-Glo reagent containing 0.02% CHAPS was added to each well and incubated at room temperature for 1 h to terminate the kinase reaction and use up all remaining ATP. Then, 5 μL of ADP-Glo detection solution containing 0.02% CHAPS was added to each well and incubated at room temperature for 30 min to measure the emittance intensity.

Row | Structure (SMILES) | pIC50
1 | CN1C(=O)[C@@H](NC(=O)c2ncn(Cc3ccccc3)n2)COc2ccc(C#CCN3CCN(CC#Cc4ccc5c(c4)N(C)C(=O)[C@@H](NC(=O)c4ncn(Cc6ccccc6)n4)CO5)CC3)cc21 [US20240270732, Compound I-32] | 8.51
2 | C[C@H]1Oc2ccc(C#CCN3CCN(CC#Cc4ccc5c(c4)N(C)C(=O)[C@@H](NC(=O)c4n[nH]c(Cc6cccc(O)c6)n4)[C@@H](C)O5)CC3)cc2N(C)C(=O)[C@H]1NC(=O)c1n[nH]c(Cc2cccc(O)c2)n1 [US20240270732, Compound I-70] | 7.74
3 | C[C@H]1Oc2ccc(C#CCN3CCN(CC#Cc4ccc5c(c4)N(C)C(=O)[C@@H](NC(=O)c4n[nH]c(Cc6ccncc6)n4)[C@@H](C)O5)CC3)cc2N(C)C(=O)[C@H]1NC(=O)c1n[nH]c(Cc2ccncc2)n1 [US20240270732, Compound I-66] | 7.73
4 | C[C@H]1Oc2ccc(C#Cc3cccnc3)cc2N(C)C(=O)[C@H]1NC(=O)c1n[nH]c(Cc2ccccc2)n1 [US20240270732, Compound I-111] | 8.17
5 | C[C@@H]1Oc2ccc(C#CCN3CCN(CC#Cc4ccc5c(c4)N(C)C(=O)[C@@H](NC(=O)c4n[nH]c(Cc6ccccc6)n4)[C@H](C)O5)CC3)cc2N(C)C(=O)[C@H]1NC(=O)c1n[nH]c(Cc2ccccc2)n1 [US20240270732, Compound I-19] | 7.21
6 | CN1C(=O)[C@@H](NC(=O)c2ncn(Cc3ccccc3)n2)COc2ccc(C#CCN3CCN(CC#CC#CCN4CCN(CC#Cc5ccc6c(c5)N(C)C(=O)[C@@H](NC(=O)c5ncn(Cc7ccccc7)n5)CO6)CC4)CC3)cc21 [US20240270732, Compound I-94] | 8.21
7 | C[C@H]1Oc2ccc(C#CCN3CCN(CC#Cc4ccc5c(c4)N(C)C(=O)[C@@H](NC(=O)c4ncn(Cc6ccccc6)n4)[C@@H](C)O5)CC3)cc2N(C)C(=O)[C@H]1NC(=O)c1ncn(Cc2ccccc2)n1 [US20240270732, Compound I-23] | 8.33
8 | CN1C(=O)[C@@H](NC(=O)c2n[nH]c(Cc3ccccc3)n2)COc2ccc(C#CCN3CCN(CC#CC#CCN4CCN(CC#Cc5ccc6c(c5)N(C)C(=O)[C@@H](NC(=O)c5n[nH]c(Cc7ccccc7)n5)CO6)CC4)CC3)cc21 [US20240270732, Compound I-92] | 8.23
9 | C[C@H]1Oc2ccc(C#CCN3CCN(CC#Cc4ccc5c(c4)N(C)C(=O)[C@@H](NC(=O)c4n[nH]c(Cc6ccccc6)n4)CO5)CC3)cc2N(C)C(=O)[C@H]1NC(=O)c1n[nH]c(Cc2ccccc2)n1 [US20240270732, Compound I-3] | 8.14
10 | C[C@H]1Oc2ccc(C#CCN3CCN(CC#CC#CCN4CCN(CC#Cc5ccc6c(c5)N(C)C(=O)[C@@H](NC(=O)c5n[nH]c(Cc7ccccc7)n5)[C@@H](C)O6)CC4)CC3)cc2N(C)C(=O)[C@H]1NC(=O)c1n[nH]c(Cc2ccccc2)n1 [US20240270732, Compound I-91] | 8.36
11 | C[C@H]1Oc2ccc(C#CCN3CCN(CC#Cc4ccc5c(c4)N(C)C(=O)[C@@H](NC(=O)c4ncn(Cc6ccccc6)n4)[C@@H](C)O5)CC3)cc2N(C)C(=O)[C@H]1NC(=O)c1cn(Cc2ccccc2)cn1 [US20240270732, Compound I-27] | 8.40
12 | C[C@H]1Oc2ccc(C#CCN3CCN(CC#Cc4ccc5c(c4)N(C)C(=O)[C@@H](NC(=O)c4nnn(Cc6ccccc6)n4)CO5)CC3)cc2N(C)C(=O)[C@H]1NC(=O)c1n[nH]c(Cc2ccccc2)n1 [US20240270732, Compound I-7] | 8.11
13 | C#Cc1ccc2c(c1)N(C)C(=O)[C@@H](NC(=O)c1ncn(Cc3ccccc3)n1)[C@@H](C)O2 [US20240270732, Compound I-120] | 7.97
14 | C#CCN1CCN(CC#Cc2ccc3c(c2)N(C)C(=O)[C@@H](NC(=O)c2nnn(Cc4ccccc4)n2)[C@@H](C)O3)CC1 [US20240270732, Compound I-55] | 8.05
15 | C[C@H]1Oc2ccc(C#CCN3CCN(CC#Cc4ccc5c(c4)N(C)C(=O)[C@@H](NC(=O)c4ncn(Cc6cccc(O)c6)n4)[C@@H](C)O5)CC3)cc2N(C)C(=O)[C@H]1NC(=O)c1ncn(Cc2cccc(O)c2)n1 [US20240270732, Compound I-76] | 7.65
16 | C[C@H]1Oc2ccc(C#Cc3cccc([N+](=O)[O-])c3)cc2N(C)C(=O)[C@H]1NC(=O)c1ncn(Cc2ccccc2)n1 [US20240270732, Compound I-116] | 8.10
17 | C#CCN1CCN(CC#Cc2ccc3c(c2)N(C)C(=O)[C@@H](NC(=O)c2cc(Cc4ccccc4)on2)[C@@H](C)O3)CC1 [US20240270732, Compound I-45] | 7.85
18 | C#CCN1CCN(CC#Cc2ccc3c(c2)N(C)C(=O)[C@@H](NC(=O)c2n[nH]c(Cc4ccccc4)n2)CO3)CC1 [US20240270732, Compound I-10] | 8.49

Row | Structure (SMILES) | pIC50
19 | CN1C(=O)[C@@H](NC(=O)c2nnn(Cc3ccccc3)n2)COc2ccc(C#CCN3CCN(CC#Cc4ccc5c(c4)N(C)C(=O)[C@@H](NC(=O)c4nnn(Cc6ccccc6)n4)CO5)CC3)cc21 [US20240270732, Compound I-58] | 8.21
20 | C#CCOCCOCCOCCOCCOCC#Cc1ccc2c(c1)N(C)C(=O)[C@@H](NC(=O)c1ncn(Cc3ccccc3)n1)CO2 [US20240270732, Compound I-85-2] | 8.18
21 | C[C@H]1Oc2ccc(C#CCN3CCN(CC#Cc4ccc5c(c4)N(C)C(=O)[C@@H](NC(=O)c4nnc(Cc6ccccc6)o4)[C@@H](C)O5)CC3)cc2N(C)C(=O)[C@H]1NC(=O)c1nnc(Cc2ccccc2)o1 [US20240270732, Compound I-50] | 7.84
22 | C[C@H]1Oc2ccc(C#CCN3CCN(CC#Cc4ccc5c(c4)N(C)C(=O)[C@@H](NC(=O)c4ncn(Cc6ccccc6)n4)[C@@H](C)O5)CC3)cc2N(C)C(=O)[C@H]1NC(=O)c1n[nH]c(Cc2ccccc2)n1 [US20240270732, Compound I-4] | 8.18
23 | CN1C(=O)[C@@H](NC(=O)c2n[nH]c(Cc3ccccc3)n2)COc2ccc(C#CCOCCOCCOCCOCCOCC#CC#CCOCCOCCOCCOCCOCC#Cc3ccc4c(c3)N(C)C(=O)[C@@H](NC(=O)c3n[nH]c(Cc5ccccc5)n3)CO4)cc21 [US20240270732, Compound I-88] | 8.18
24 | C[C@H]1Oc2ccc(C#CCOCCOCCOCCOCCOCC#Cc3ccc4c(c3)N(C)C(=O)[C@@H](NC(=O)c3ncn(Cc5ccccc5)n3)[C@@H](C)O4)cc2N(C)C(=O)[C@H]1NC(=O)c1ncn(Cc2ccccc2)n1 [US20240270732, Compound I-84-1] | 8.05
25 | C#CCN1CCN(CC#Cc2ccc3c(c2)N(C)C(=O)[C@@H](NC(=O)c2cn(Cc4ccccc4)cn2)[C@H](C)O3)CC1 [US20240270732, Compound I-63] | 7.23
26 | C[C@H]1Oc2ccc(C#CCCCCC(=O)O)cc2N(C)C(=O)[C@H]1NC(=O)c1ncn(Cc2ccccc2)n1 [US20240270732, Compound I-108] | 7.69
27 | C[C@H]1Oc2ccc(C#Cc3cccc([N+](=O)[O-])c3)cc2N(C)C(=O)[C@H]1NC(=O)c1n[nH]c(Cc2ccccc2)n1 [US20240270732, Compound I-115] | 8.13
28 | C[C@H]1Oc2ccc(C#CCOCCOCCOCCOCCOCC#Cc3ccc4c(c3)N(C)C(=O)[C@@H](NC(=O)c3n[nH]c(Cc5ccccc5)n3)CO4)cc2N(C)C(=O)[C@H]1NC(=O)c1n[nH]c(Cc2ccccc2)n1 [US20240270732, Compound I-83] | 8.09
29 | C#CCN1CCN(CC#Cc2ccc3c(c2)N(C)C(=O)[C@@H](NC(=O)c2nnn(Cc4ccccc4)n2)CO3)CC1 [US20240270732, Compound I-57] | 8.09
30 | COCCOCCOCCOCCOCC#Cc1ccc2c(c1)N(C)C(=O)[C@@H](NC(=O)c1ncn(Cc3ccccc3)n1)CO2 [US20240270732, Compound I-102] | 8.73
31 | CN1C(=O)[C@@H](NC(=O)c2cn(Cc3ccccc3)cn2)COc2ccc(C#CCN3CCN(CC#Cc4ccc5c(c4)N(C)C(=O)[C@@H](NC(=O)c4cn(Cc6ccccc6)cn4)CO5)CC3)cc21 [US20240270732, Compound I-62] | 8.09
32 | C[C@H]1Oc2ccc(C#CCCCCC(=O)O)cc2N(C)C(=O)[C@H]1NC(=O)c1n[nH]c(Cc2ccccc2)n1 [US20240270732, Compound I-107] | 7.70
33 | C[C@H]1Oc2ccc(C#CCN3CCN(CC#Cc4ccc5c(c4)N(C)C(=O)[C@@H](NC(=O)c4ncc(Cc6ccccc6)o4)[C@@H](C)O5)CC3)cc2N(C)C(=O)[C@H]1NC(=O)c1ncc(Cc2ccccc2)o1 [US20240270732, Compound I-44] | 7.83
34 | C[C@H]1Oc2ccc(C#Cc3cccc(S(=O)(=O)O)c3)cc2N(C)C(=O)[C@H]1NC(=O)c1n[nH]c(Cc2ccccc2)n1 [US20240270732, Compound I-113] | 8.03
35 | C#CCN1CCN(CC#Cc2ccc3c(c2)N(C)C(=O)[C@@H](NC(=O)c2n[nH]c(Cc4cccc(O)c4)n2)[C@@H](C)O3)CC1 [US20240270732, Compound I-69] | 7.71
36 | CN(CCCC#Cc1ccc2c(c1)N(C)C(=O)[C@@H](NC(=O)c1n[nH]c(Cc3ccccc3)n1)CO2)CCCC#Cc1ccc2c(c1)N(C)C(=O)[C@@H](NC(=O)c1n[nH]c(Cc3ccccc3)n1)CO2 [US20240270732, Compound I-96] | 7.73

— BindingDB's records for patent US20240270732 (Chengdu Biobel Biotechnology Co., 2024)
